Tested on: LPA1-initiated signaling in HER2-negative/PI3K//ERK/MEK/RAF/mTOR Wild-Type breast tumor cell samples
Experiment: impedance biosensor cell adhesion test, LPA1 agonist with RAS node inhibitors (Example 4)
Assay type: cell-based, human
Set-up: unit not given here
Description: Tissue and cell samples: 28 HER2-negative/PI3K//ERK/MEK/RAF/mTOR Wild-Type breast tumor cell samples were studied. […] From these responses, the net amount of LPA1-initiated signaling involving PI3K-α, Class 1 PI3K-isoforms (pan-PI3K), Class 1 PI3K-isoforms and mTOR, Bcl-xL and Bcl-2, MEK, ERK, and RAF, individually and in combination, was quantified.
In this example, 14 of the 28 patient cell samples tested recorded output values with at least one of the targeted therapeutic(s) above 250. […] Five patients would be selected to receive treatment with gedatolisib, four would be selected to receive treatment with copanlisib, one patient would be selected to receive treatment with PLX7904, six patients would be selected to receive treatment with gedatolisib and PLX7904, seven patients would be selected to receive treatment with gedatolisib and ravoxertinib, nine patients would be selected to receive treatment with gedatolisib and trametinib, and 14 patients would be selected to receive treatment with gedatolisib and navitoclax.

[1] = sample C1838.01.155, cut-off 250
[2] = sample C1986.01.10, cut-off 250
[3] = sample C2090.01.14, cut-off 250
[4] = sample C2169.01.10, cut-off 250
[5] = sample C3091.01.13, cut-off 250
[6] = sample C3132.01.13, cut-off 250
[7] = sample C3311.01.10, cut-off 250
[8] = sample CL021.01.869, cut-off 250

SMILES	output value (sample C1816.01.6, cut-off 250)	output value [1]	output value (sample C1918.01.5, cut-off 250)	output value [2]	output value [3]	output value (sample C2167.01.4, cut-off 250)	output value [4]	output value (sample C2483.01.6, cut-off 250)	output value (sample C2693.01.2, cut-off 250)	output value (sample C2697.01.4, cut-off 250)	output value (sample C2729.01.4, cut-off 250)	output value (sample C2748.01.4, cut-off 250)	output value (sample C2792.01.2, cut-off 250)	output value (sample C2794.01.9, cut-off 250)	output value (sample C2868.01.6, cut-off 250)	output value (sample C2991.01.7, cut-off 250)	output value [5]	output value (sample C3101.01.6, cut-off 250)	output value [6]	output value [7]	further results
COc1c(OCCCN2CCOCC2)ccc2c1N=C(NC(=O)c1cnc(N)nc1)N1CCN=C21 [Copanlisib, copanlisib]	374	10	113	170	103	67	199	113	46	103	72	55	98	14	58	310	156	70	38	430	output value (sample C3337.01.6, cut-off 250): 240; output value (sample C3377.01.2, cut-off 250): 86; output value (sample C3507.01.5, cut-off 250): 94; output value (sample C3730.01.9, cut-off 250): 511; output value (sample C3873.01.4, cut-off 250): 199; output value (sample C3957.01.6, cut-off 250): 53; output value (sample C4005.01.2, cut-off 250): 125; output value [8]: −259
CCN(C)S(=O)(=O)Nc1ccc(F)c(C(=O)c2c[nH]c3ncc(-c4cnc(C5CC5)nc4)cc23)c1F [PLX7904]	158	−91	−5	−19	−38	22	14	67	−10	−2	−2	14	5	36	−12	53	50	262	22	−17	output value (sample C3337.01.6, cut-off 250): 58; output value (sample C3377.01.2, cut-off 250): −58; output value (sample C3507.01.5, cut-off 250): 46; output value (sample C3730.01.9, cut-off 250): −173; output value (sample C3873.01.4, cut-off 250): 89; output value (sample C3957.01.6, cut-off 250): −22; output value (sample C4005.01.2, cut-off 250): −22; output value [8]: 19
Cn1nccc1Nc1nccc(-c2ccn([C@H](CO)c3ccc(Cl)c(F)c3)c(=O)c2)n1 [ravoxertinib]	96	108	65	26	48	7	14	12	−55	55	10	60	24	−24	−36	10	67	−12	−22	−67	output value (sample C3337.01.6, cut-off 250): 53; output value (sample C3377.01.2, cut-off 250): 0; output value (sample C3507.01.5, cut-off 250): −24; output value (sample C3730.01.9, cut-off 250): −300; output value (sample C3873.01.4, cut-off 250): 43; output value (sample C3957.01.6, cut-off 250): −5; output value (sample C4005.01.2, cut-off 250): 12; output value [8]: −226
C[C@H](Nc1ccc2c(c1)OCCn1cc(N3C(=O)OC[C@H]3C(F)F)nc1-2)C(N)=O [GDC-0077]	−22	38	38	62	36	−12	34	113	−24	31	34	65	43	−89	−24	55	60	0	0	14	output value (sample C3337.01.6, cut-off 250): 139; output value (sample C3377.01.2, cut-off 250): −161; output value (sample C3507.01.5, cut-off 250): −58; output value (sample C3730.01.9, cut-off 250): −113; output value (sample C3873.01.4, cut-off 250): 122; output value (sample C3957.01.6, cut-off 250): −10; output value (sample C4005.01.2, cut-off 250): −12; output value [8]: −466
CC(=O)Nc1cccc(-n2c(=O)n(C3CC3)c(=O)c3c(Nc4ccc(I)cc4F)n(C)c(=O)c(C)c32)c1 [trametinib]	29	31	65	161	19	−7	67	132	−60	72	26	79	48	−14	−43	−70	50	101	10	94	output value (sample C3337.01.6, cut-off 250): 113; output value (sample C3377.01.2, cut-off 250): 149; output value (sample C3507.01.5, cut-off 250): −29; output value (sample C3730.01.9, cut-off 250): −204; output value (sample C3873.01.4, cut-off 250): −72; output value (sample C3957.01.6, cut-off 250): 10; output value (sample C4005.01.2, cut-off 250): 36; output value [8]: −226
CN(C)C1CCN(C(=O)c2ccc(NC(=O)Nc3ccc(-c4nc(N5CCOCC5)nc(N5CCOCC5)n4)cc3)cc2)CC1 [gedatolisib]	84	50	206	101	137	132	242	130	86	103	103	72	137	38	79	396	204	149	65	216	output value (sample C3337.01.6, cut-off 250): 336; output value (sample C3377.01.2, cut-off 250): 113; output value (sample C3507.01.5, cut-off 250): 70; output value (sample C3730.01.9, cut-off 250): 494; output value (sample C3873.01.4, cut-off 250): 298; output value (sample C3957.01.6, cut-off 250): 74; output value (sample C4005.01.2, cut-off 250): 216; output value [8]: 353

Source: patent US20220412957A1, “METHODS OF TREATING CANCER PATIENTS WITH RAS NODE OR RTK TARGETED THERAPEUTIC AGENTS” (Celcuity Inc., priority 2019, published 2022)
